{"source": "patent US20240285525A1", "about": "“METHODS AND MATERIALS FOR TREATING CANCER” (The Johns Hopkins University, priority 2021, published 2024)", "key": {"[1]": {"system": "GL261 cells", "experiment": "Inhibition of endocytosis (nanotube uptake, flow cytometry)", "format": "cell-based, mouse", "details": "inhibitor 30 min then nanotubes 3 hours, 30 μg/mL DMA, 500 μg/mL fucoidan, 10 μM LatB", "procedure": "200,000 GL261 cells were plated per well in 12-well plates and incubated at 37° C. and 5% CO2 overnight. The following day, media was replaced with fresh media, and inhibitor stock solutions were diluted and delivered to the cells at targeted concentrations: 1.25 μg/mL cytochalasin D (CytD), 10 μM latrunculin B (LatB), 15 μg/mL nocodazole, 5 μg/mL fillipin, 2.5 μg/mL nystatin, 1.32 mg/mL methyl-β-cyclodextrin (MPCD), 2.5 μg/mL chlorpromazine (CPZ), 12.5 μg/mL dynasore, 0.2 μg/mL pertussis toxin (PTX), 2 μg/mL cholera toxin (CTX), 30 μg/mL 5-(N,N-dimethyl)-amiloride hydrochloride (DMA), and 500 μg/mL fucoidan. Cells with no inhibitor were used as positive controls. Plates were gently shaken by hand to ensure even distribution of inhibitors, and placed in the incubator for 30 minutes. […] Cells were washed twice with 1 mL PBS, trypsin-EDTA at 37° C. was added to each well, the contents of each well were individually mixed via up and down pipetting and transferred to 1.5 mL centrifuge tubes. Cells were washed twice with PBS, reconstituted in 500 μL PBS and transferred to flow cytometry tubes. 5 μL of 10 μg/mL propidium iodide (PI) solution was added to each tube and vortexed. The cells were run on a BD FACSCanto flow cytometer and were examined for PI and HEX fluorescence via excitation at 488 nm with a 585/42 filter. Cells were gated by PI staining to select for live cells, and by scattering (FSC-A and SSC-A) to select for single cells. To evaluate cytotoxicity of inhibitors, 10,000 GL261 cells were plated in 96-well plates and incubated overnight in a 37° C. 5% C02 incubator. The next day, media was replaced with fresh formulated media, and inhibitor stock solutions were diluted and delivered to the cells at concentrations mentioned above. Plates were gently shaken by hand and placed in the incubator for 3 hours. Cell viability was measured using CellTiter-Glo 2.0 assay (Promega, Madison, WI) following the manufacturer's protocol. Luminescence was recorded using a Synergy H1 microplate reader (Biotek, Winooski, VT), and cell viability was normalized to untreated cells."}, "[2]": {"system": "M2 macrophages from primary CD14+human monocytes", "experiment": "Macrophage gene expression via RT-qPCR", "format": "cell-based", "details": "1 μM TS free or in nanotubes, or empty nanotubes; compared to untreated M2-macrophages", "procedure": "Freshly isolated primary CD14+human monocytes were plated at a density of 500,000 cells/well in the presence of 50 ng/mL of M-CSF (macrophage colony stimulating factor) to differentiate them to MO-macrophages. The media were renewed with the same composition (DMEM+10% FBS+1% Penicillin-Streptomycin+50 ng/mL M-CSF) every 2-3 days until complete differentiation. The macrophages were treated with 20 ng/mL of IL-4 for 3 days differentiate them to an M2-phenotype.\nCells were detached using 1× Tryp1E Express Enzyme (ThermoFisher Scientific) and washed with PBS. TRIzol (ThermoFisher Scientific) was added to the cells followed by absolute ethanol. mRNA was collected in Zymo-Spin IC columns (Zymo Research) by centrifuging the cell solution in the spin columns. The mRNA was washed and resuspend in RNAse and DNAse free water. After evaluating the mRNA concentration, the cDNA reaction mixture was prepared by adding the mRNA to nuclease-free water, iScript Reverse Transcriptase (Bio-Rad) and 5× iScript Reaction Mix. The cDNA reaction was performed using TurboCycler Lite Thermal Cycler (Blue-Ray Biotech). The cDNA was then aliquoted and added to a mixture of primers for the genes 1112b, 118, Nos2, 1110, Tgfb1 and Fizz1 respectively along with iTaq™ Universal SYBR® Green Supermix (Bio-Rad). […] Data was analysed using the ΔΔCt method. […]"}, "[3]": {"experiment": "Histopathological analysis of organs (H&E)", "format": "in vivo, mouse", "excerpt": "8 week old mice were used for this study. […] The photon counts within each ROI were quantified.\nFollowing perfusion and fixation with 10% neutral buffered formalin, tissues were processed into paraffin blocks using standard histology techniques, sectioned at a thickness of […], stained with hematoxylin and eosin (H&E), and evaluated using light microscopy."}, "[4]": {"system": "GL261 cells", "experiment": "Cell viability (CellTiter-Glo 2.0)", "format": "cell-based, mouse", "details": "12 hours + 36 hours at 37° C.; NT 5-6.4 μM ssDNA-amphiphiles, DOX 5 μg/mL, NT-DOX same concentrations; normalized to untreated", "procedure": "The samples were incubated with cells for 12 hours at 37° C., followed by a single wash with PBS. 100 μL of fresh media was added, and cells were incubated at 37° C. for an additional 36 hours. […] The luminescence signal of each well was measured, and the luminescence of each group was normalized to the luminescence of the untreated cells."}, "[5]": {"system": "GL261-Luc orthotopic tumor", "experiment": "Intracranial delivery via CED in orthotopic GL261-Luc mouse model"}}, "data": [{"compound": "C/C1=C/C(=O)O[C@@H]2C[C@@H](CC[C@H](C)/C=C\\CC1)O[C@@](O)([C@@H]1CSC(=O)N1)C2", "note": "[LatB, latrunculin B]", "values": [{"measurement": "inhibition of cellular uptake of the nanotubes", "setting": "[1]", "value": 20, "unit": "%"}]}, {"compound": "fucoidan", "values": [{"measurement": "inhibition of cellular uptake of the nanotubes", "setting": "[1]", "value": 57, "unit": "%"}]}, {"compound": "C=C(NC(=O)C(=C)NC(=O)c1csc(C2=N[C@@H]3c4csc(n4)[C@H]4NC(=O)c5csc(n5)[C@H]([C@](C)(O)[C@@H](C)O)NC(=O)[C@H]5CSC(=N5)/C(=C/C)NC(=O)[C@H]([C@@H](C)O)NC(=O)c5csc(n5)[C@]3(CC2)NC(=O)[C@H](C)NC(=O)C(=C)NC(=O)[C@H](C)NC(=O)[C@H]([C@@H](C)CC)N[C@@H]2C=Cc3c([C@H](C)O)cc(nc3[C@H]2O)C(=O)O[C@@H]4C)n1)C(N)=O", "note": "[free TS, thiostrepton]", "values": [{"measurement": "expression of genes associated with M2-like macrophages (ΔΔCt)", "setting": "[2]", "value": "successful at downregulating genes associated with M2-like macrophages"}, {"measurement": "expression of genes of M1-like macrophages (ΔΔCt)", "setting": "[2]", "value": "upregulating genes of M1-like macrophages"}]}, {"compound": "CN(C)c1nc(N)c(C(=O)N=C(N)N)nc1Cl.Cl", "note": "[DMA, 5-(N,N-dimethyl)-amiloride hydrochloride]", "values": [{"measurement": "inhibition of cellular uptake of the nanotubes", "setting": "[1]", "value": 44, "unit": "%"}]}, {"compound": "COc1cccc2c1C(=O)c1c(O)c3c(c(O)c1C2=O)C[C@@](O)(C(=O)CO)C[C@@H]3O[C@H]1C[C@H](N)[C@H](O)[C@H](C)O1.Cl", "note": "[DOX, Doxorubicin-hydrogen chloride]", "values": [{"measurement": "histology of liver", "setting": "[3]", "value": "multifocal areas of hepatocyte degeneration and necrosis"}, {"measurement": "histology of spleen", "setting": "[3]", "value": "diffuse, moderate to marked depletion of the spleen white pulp associated with zonal lymphocytic apoptosis and necrosis"}, {"measurement": "histology of lung, kidney and heart tissues", "setting": "[3]; compared to the PBS control", "value": "no significant findings"}, {"measurement": "viability of GL261 cells", "setting": "[4]", "value": "47±6", "unit": "%"}, {"measurement": "body weight gained", "setting": "[5]; after 28 days", "value": 6, "unit": "%"}, {"measurement": "decrease in tumor signal (bioluminescence)", "setting": "[5]; day 28, pump 70 μM DOX (0.2 mg DOX/Kg mouse), about 14 days, 0.25 μL/hour", "value": 80, "unit": "%"}, {"measurement": "median survival time", "setting": "[5]; n=9-10 per group, NT 95 μM ssDNA-amphiphiles, DOX 70 μM", "value": 34.5, "unit": "days"}]}]}
